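96-well plates; 48 h exposure; 5 concentrations. Endpoints by linear interpolation between flanking doses. Not reached: highest tested concentration assigned. GI50: concentration for 50% inhibition of growth. TGI: concentration producing complete growth inhibition.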
Legend:
Assay in all cases: inhibition of tumour cell growth, NCI panel, 48 h
786-0 renal = system: 786-0 renal
A498 renal = system: A498 renal
A549 NSCLC = system: A549 NSCLC
ACHN renal = system: ACHN renal
CAKI-1 renal = system: CAKI-1 renal
CCRF-CEM leukemia = system: CCRF-CEM leukemia
COLO 205 colon = system: COLO 205 colon
DU-145 prostate = system: DU-145 prostate
EKVX NSCLC = system: EKVX NSCLC
HCC-2998 colon = system: HCC-2998 colon
HCT-116 colon = system: HCT-116 colon
HL-60(TB) leukemia = system: HL-60(TB) leukemia
HOP-62 NSCLC = system: HOP-62 NSCLC
HOP-92 NSCLC = system: HOP-92 NSCLC
HS 578T breast = system: HS 578T breast
HT29 colon = system: HT29 colon
IGROV1 ovarian = system: IGROV1 ovarian
K-562 leukemia = system: K-562 leukemia
KM12 colon = system: KM12 colon
LOX IMVI melanoma = system: LOX IMVI melanoma
M14 melanoma = system: M14 melanoma
MALME-3M melanoma = system: MALME-3M melanoma
MCF7 breast = system: MCF7 breast
MDA-MB-231 breast = system: MDA-MB-231 breast
MDA-MB-435 = system: MDA-MB-435
MDA-N = system: MDA-N
MOLT-4 leukemia = system: MOLT-4 leukemia
NCI-H460 lung = system: NCI-H460 lung
NCI-H522 lung = system: NCI-H522 lung
OVCAR-3 ovarian = system: OVCAR-3 ovarian
OVCAR-5 ovarian = system: OVCAR-5 ovarian
OVCAR-8 ovarian = system: OVCAR-8 ovarian
PC-3 prostate = system: PC-3 prostate
RPMI-8226 leukemia = system: RPMI-8226 leukemia
RXF 393 renal = system: RXF 393 renal
SF-268 CNS = system: SF-268 CNS
SF-295 CNS = system: SF-295 CNS
SF-539 CNS = system: SF-539 CNS
SK-MEL-2 melanoma = system: SK-MEL-2 melanoma
SK-MEL-28 melanoma = system: SK-MEL-28 melanoma
SK-MEL-5 melanoma = system: SK-MEL-5 melanoma
SK-OV-3 ovarian = system: SK-OV-3 ovarian
SN12C renal = system: SN12C renal
SNB-19 CNS = system: SNB-19 CNS
SNB-75 CNS = system: SNB-75 CNS
SR leukemia = system: SR leukemia
SW-620 colon = system: SW-620 colon
T-47D breast = system: T-47D breast
TK-10 renal = system: TK-10 renal
U251 CNS = system: U251 CNS
UACC-257 melanoma = system: UACC-257 melanoma
UACC-62 melanoma = system: UACC-62 melanoma
UO-31 renal = system: UO-31 renal
BT-549 breast = system: BT-549 breast
HCT-15 colon = system: HCT-15 colon
NCI-H226 lung = system: NCI-H226 lung
NCI-H23 lung = system: NCI-H23 lung
NCI/ADR-RES ovarian = system: NCI/ADR-RES ovarian

O=C1OC2(CCCCC2)C(Oc2ccc(Cl)cc2)=C1F
TGI (786-0 renal): > 100 µM
TGI (A498 renal): > 100 µM
TGI (A549 NSCLC): > 100 µM
TGI (ACHN renal): > 100 µM
TGI (CAKI-1 renal): > 100 µM
TGI (CCRF-CEM leukemia): 86.1 µM
TGI (COLO 205 colon): > 100 µM
TGI (DU-145 prostate): > 100 µM
TGI (EKVX NSCLC): > 100 µM
TGI (HCC-2998 colon): 57 µM
TGI (HCT-116 colon): > 100 µM
TGI (HL-60(TB) leukemia): 62.8 µM
TGI (HOP-62 NSCLC): > 100 µM
TGI (HOP-92 NSCLC): 82.5 µM
TGI (HS 578T breast): > 100 µM
TGI (HT29 colon): > 100 µM
TGI (IGROV1 ovarian): > 100 µM
TGI (K-562 leukemia): > 100 µM
TGI (KM12 colon): > 100 µM
TGI (LOX IMVI melanoma): > 100 µM
TGI (M14 melanoma): > 100 µM
TGI (MALME-3M melanoma): 51.6 µM
TGI (MCF7 breast): > 100 µM
TGI (MDA-MB-231 breast): > 100 µM
TGI (MDA-MB-435): > 100 µM
TGI (MDA-N): > 100 µM
TGI (MOLT-4 leukemia): 48.5 µM
TGI (NCI-H460 lung): > 100 µM
TGI (NCI-H522 lung): 95.9 µM
TGI (OVCAR-3 ovarian): > 100 µM
TGI (OVCAR-5 ovarian): > 100 µM
TGI (OVCAR-8 ovarian): > 100 µM
TGI (PC-3 prostate): > 100 µM
TGI (RPMI-8226 leukemia): > 100 µM
TGI (RXF 393 renal): > 100 µM
TGI (SF-268 CNS): > 100 µM
TGI (SF-295 CNS): > 100 µM
TGI (SF-539 CNS): > 100 µM
TGI (SK-MEL-2 melanoma): 61.8 µM
TGI (SK-MEL-28 melanoma): 81.5 µM
TGI (SK-MEL-5 melanoma): 33.3 µM
TGI (SK-OV-3 ovarian): > 100 µM
TGI (SN12C renal): > 100 µM
TGI (SNB-19 CNS): > 100 µM
TGI (SNB-75 CNS): > 100 µM
TGI (SR leukemia): > 100 µM
TGI (SW-620 colon): > 100 µM
TGI (T-47D breast): > 100 µM
TGI (TK-10 renal): > 100 µM
TGI (U251 CNS): > 100 µM
TGI (UACC-257 melanoma): 66.8 µM
TGI (UACC-62 melanoma): > 100 µM
TGI (UO-31 renal): > 100 µM

COC(=O)c1c(C(=O)O)c(-c2ccccc2)c(-c2ccccc2)c(-c2ccccc2)c1-c1ccccc1
GI50 (786-0 renal): > 100 µM
TGI (786-0 renal): > 100 µM
GI50 (A549 NSCLC): > 100 µM
TGI (A549 NSCLC): > 100 µM
GI50 (ACHN renal): > 100 µM
TGI (ACHN renal): > 100 µM
GI50 (BT-549 breast): > 100 µM
TGI (BT-549 breast): > 100 µM
GI50 (CAKI-1 renal): > 100 µM
TGI (CAKI-1 renal): > 100 µM
GI50 (CCRF-CEM leukemia): > 100 µM
TGI (CCRF-CEM leukemia): > 100 µM
GI50 (COLO 205 colon): > 100 µM
TGI (COLO 205 colon): > 100 µM
GI50 (DU-145 prostate): > 100 µM
TGI (DU-145 prostate): > 100 µM
GI50 (EKVX NSCLC): > 100 µM
TGI (EKVX NSCLC): > 100 µM
GI50 (HCT-116 colon): 77.9 µM
TGI (HCT-116 colon): > 100 µM
GI50 (HCT-15 colon): > 100 µM
TGI (HCT-15 colon): > 100 µM
GI50 (HL-60(TB) leukemia): > 100 µM
TGI (HL-60(TB) leukemia): > 100 µM
GI50 (HOP-62 NSCLC): > 100 µM
TGI (HOP-62 NSCLC): > 100 µM
GI50 (HOP-92 NSCLC): > 100 µM
TGI (HOP-92 NSCLC): > 100 µM
GI50 (HS 578T breast): > 100 µM
TGI (HS 578T breast): > 100 µM
GI50 (HT29 colon): > 100 µM
TGI (HT29 colon): > 100 µM
GI50 (IGROV1 ovarian): > 100 µM
TGI (IGROV1 ovarian): > 100 µM
GI50 (K-562 leukemia): 87 µM
TGI (K-562 leukemia): > 100 µM
GI50 (KM12 colon): > 100 µM
TGI (KM12 colon): > 100 µM
GI50 (LOX IMVI melanoma): > 100 µM
TGI (LOX IMVI melanoma): > 100 µM
GI50 (M14 melanoma): > 100 µM
TGI (M14 melanoma): > 100 µM
GI50 (MALME-3M melanoma): > 100 µM
TGI (MALME-3M melanoma): > 100 µM
GI50 (MCF7 breast): > 100 µM
TGI (MCF7 breast): > 100 µM
GI50 (MDA-MB-231 breast): > 100 µM
TGI (MDA-MB-231 breast): > 100 µM
GI50 (MDA-MB-435): > 100 µM
TGI (MDA-MB-435): > 100 µM
GI50 (MOLT-4 leukemia): > 100 µM
TGI (MOLT-4 leukemia): > 100 µM
GI50 (NCI-H226 lung): > 100 µM
TGI (NCI-H226 lung): > 100 µM
GI50 (NCI-H23 lung): > 100 µM
TGI (NCI-H23 lung): > 100 µM
GI50 (NCI-H460 lung): > 100 µM
TGI (NCI-H460 lung): > 100 µM
GI50 (NCI-H522 lung): 88.5 µM
TGI (NCI-H522 lung): > 100 µM
GI50 (NCI/ADR-RES ovarian): > 100 µM
TGI (NCI/ADR-RES ovarian): > 100 µM
GI50 (OVCAR-3 ovarian): > 100 µM
TGI (OVCAR-3 ovarian): > 100 µM
GI50 (OVCAR-5 ovarian): > 100 µM
TGI (OVCAR-5 ovarian): > 100 µM
GI50 (OVCAR-8 ovarian): > 100 µM
TGI (OVCAR-8 ovarian): > 100 µM
GI50 (PC-3 prostate): > 100 µM
TGI (PC-3 prostate): > 100 µM
GI50 (RPMI-8226 leukemia): 88.8 µM
TGI (RPMI-8226 leukemia): > 100 µM
GI50 (RXF 393 renal): > 100 µM
TGI (RXF 393 renal): > 100 µM
GI50 (SF-268 CNS): > 100 µM
TGI (SF-268 CNS): > 100 µM
GI50 (SF-295 CNS): > 100 µM
TGI (SF-295 CNS): > 100 µM
GI50 (SF-539 CNS): > 100 µM
TGI (SF-539 CNS): > 100 µM
GI50 (SK-MEL-2 melanoma): > 100 µM
TGI (SK-MEL-2 melanoma): > 100 µM
GI50 (SK-MEL-28 melanoma): 93.4 µM
TGI (SK-MEL-28 melanoma): > 100 µM
GI50 (SK-MEL-5 melanoma): > 100 µM
TGI (SK-MEL-5 melanoma): > 100 µM
GI50 (SK-OV-3 ovarian): > 100 µM
TGI (SK-OV-3 ovarian): > 100 µM
GI50 (SN12C renal): > 100 µM
TGI (SN12C renal): > 100 µM
GI50 (SNB-19 CNS): 23.1 µM
TGI (SNB-19 CNS): > 100 µM
GI50 (SNB-75 CNS): 47.6 µM
TGI (SNB-75 CNS): > 100 µM
GI50 (SW-620 colon): > 100 µM
TGI (SW-620 colon): > 100 µM
GI50 (T-47D breast): 75.7 µM
TGI (T-47D breast): > 100 µM
GI50 (TK-10 renal): > 100 µM
TGI (TK-10 renal): > 100 µM
GI50 (U251 CNS): > 100 µM
TGI (U251 CNS): > 100 µM
GI50 (UACC-257 melanoma): > 100 µM
TGI (UACC-257 melanoma): > 100 µM
GI50 (UACC-62 melanoma): > 100 µM
TGI (UACC-62 melanoma): > 100 µM
GI50 (UO-31 renal): 14.7 µM
TGI (UO-31 renal): 43.5 µM

From PubChem BioAssay (NCI)
